In patent US20240252488A1 (KOREA RESEARCH INSTITUTE OF CHEMICAL TECHNOLOGY, priority 2020, published 2024):

How the values were obtained:
FADD−/− Jurkat cells = experiment: Necroptosis inhibition assay, TNF-α-induced necroptosis (CellTiter-Glo 2.0); assay type: cell-based, human; conditions: TNF-α 15 ng/mL; for Necroptosis inhibition assay (Rescue %) 1 μM: compound 1 μM; for Necroptosis inhibition assay (Rescue %) 10 μM: compound 10 μM; for Necroptosis inhibition assay (Rescue %) 1.1 μM: compound 1.1 µM
Procedure, shortened: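 Necroptosis was triggered by TNF-α at 15 ng/mL final following 30 minutes of compound exposure (0.1, 1 or 10 μM final). Incubation ran 20 to 24 hours at 37° C under 5% CO2; cell ATP was then quantified by luminescence.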

MLKL [1] = target: T1, MLKL (Homo sapiens, UniProt Q8NB16); experiment: MLKL degradation assay in HepG2 cell line (western blot); assay type: cell-based; set-up: endogenous in cells; host or cells: HepG2 or HaCaT; conditions: cell line not given; for Degradation assay (Degradation %) 1 μM: compound 1 μM; for Degradation assay (Degradation %) 10 μM: compound 10 μM
T1 sequence (Q8NB16 1-471): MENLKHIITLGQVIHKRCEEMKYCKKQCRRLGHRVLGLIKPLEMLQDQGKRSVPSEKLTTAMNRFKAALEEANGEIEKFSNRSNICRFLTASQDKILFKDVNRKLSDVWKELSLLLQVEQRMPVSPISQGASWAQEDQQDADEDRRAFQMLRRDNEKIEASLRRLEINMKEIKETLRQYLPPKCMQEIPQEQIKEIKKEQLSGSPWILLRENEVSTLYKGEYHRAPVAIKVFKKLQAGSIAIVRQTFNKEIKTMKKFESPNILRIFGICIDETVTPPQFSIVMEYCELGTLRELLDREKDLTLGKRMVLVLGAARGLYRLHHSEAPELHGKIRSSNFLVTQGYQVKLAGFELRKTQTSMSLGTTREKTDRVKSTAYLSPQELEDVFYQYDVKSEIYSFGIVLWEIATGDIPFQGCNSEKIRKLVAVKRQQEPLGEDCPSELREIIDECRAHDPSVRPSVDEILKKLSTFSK
Procedure, shortened: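 After treating HepG2 with test compounds (final 1 μM or 10 μM) for 20-24 h, we lysed cells, equalized protein by BCA and probed MLKL by overnight primary antibody at 4 °C followed by chemiluminescent detection.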

MLKL [2] = target: T1, MLKL; experiment: Measurement of binding affinity with MLKL receptor (competitive binding assay, Kd); set-up: made in house; host or cells: HEK 293 cell line (T7 phage in E. coli BL21-derived host is also described)
Procedure, shortened: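 HEK 293-expressed, DNA-tagged MLKL; ligand beads blocked with biotin and SeaBlock/1% BSA/0.05% Tween 20/1 mM DTT buffer. Cpd from 111× DMSO stock, 0.9% DMSO final. Eluted kinase by qPCR → Kd.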

Row | Structure (SMILES) | Degradation assay (Degradation %) 1 μM (MLKL [1]) | Degradation assay (Degradation %) 10 μM (MLKL [1]) | Kd (MLKL [2]) | Necroptosis inhibition assay (Rescue %) 1 μM (FADD−/− Jurkat cells) | Necroptosis inhibition assay (Rescue %) 10 μM (FADD−/− Jurkat cells) | Necroptosis inhibition assay (Rescue %) 1.1 μM (FADD−/− Jurkat cells)
1 | Nc1ncc(-c2cnn(C3CCN(C[C@H]4CC[C@H](CNc5cccc6c5C(=O)N(C5CCC(=O)NC5=O)C6=O)CC4)CC3)c2)nc1C(=O)O[C@@H](C(=O)Nc1ccc(F)cc1)c1ccccc1 (stereo partly drawn) [TDH-351, (R)-2-((4-fluorophenyl)amino)-2-oxo-1-phenylethyl 3-amino-6-(1-(1-(((1r,4r)-4-(((2-(2,6-dioxopiperidin-3-yl)-1,3-dioxoisoindolin-4-yl)amino)methyl)cyclohexyl)methyl)piperidin-4-yl)-1H-pyrazol-4-yl)pyrazine-2-carboxylate] | 62.4% | 24.61% | 6.1 nM | 0.74% | 3.39% | –
2 | Nc1ncc(-c2cnn(C3CCN(C[C@H]4CC[C@H](CNc5ccc6c(c5)C(=O)N(C5CCC(=O)NC5=O)C6=O)CC4)CC3)c2)nc1C(=O)O[C@@H](C(=O)Nc1ccc(F)cc1)c1ccccc1 (stereo partly drawn) [TDH-352, (R)-2-((4-fluorophenyl)amino)-2-oxo-1-phenylethyl 3-amino-6-(1-(1-(((1r,4r)-4-(((2-(2,6-dioxopiperidin-3-yl)-1,3-dioxoisoindolin-5-yl)amino)methyl)cyclohexyl)methyl)piperidin-4-yl)-1H-pyrazol-4-yl)pyrazine-2-carboxylate] | 50.93% | 42.16% | 5.4 nM | 11.36% | 5.3% | –
3 | Nc1ncc(-c2cnn(C3CCN(C(=O)C4CCN(C(=O)CNc5ccc6c(c5)C(=O)N(C5CCC(=O)NC5=O)C6=O)CC4)CC3)c2)nc1C(=O)O[C@@H](C(=O)Nc1ccc(F)cc1)c1ccccc1 (stereo partly drawn) [TDH-353, (R)-2-((4-fluorophenyl)amino)-2-oxo-1-phenylethyl 3-amino-6-(1-(1-(1-((2-(2,6-dioxopiperidin-3-yl)-1,3-dioxoisoindolin-5-yl)glycyl)piperidine-4-carbonyl)piperidin-4-yl)-1H-pyrazol-4-yl)pyrazine-2-carboxylate] | 75.35% | 86.12% | 26 nM | – | 49.23% | 55.34 (1.1µM) %
4 | Nc1ncc(-c2cnn(C3CCN(C(=O)c4cn(C5CCN(C(=O)COc6cccc7c6C(=O)N(C6CCC(=O)NC6=O)C7=O)CC5)cn4)CC3)c2)nc1C(=O)O[C@@H](C(=O)Nc1ccc(F)cc1)c1ccccc1 (stereo partly drawn) [TDH-354, (R)-2-((4-fluorophenyl)amino)-2-oxo-1-phenylethyl 3-amino-6-(1-(1-(1-(1-(2-((2-(2,6-dioxopiperidin-3-yl)-1,3-dioxoisoindolin-4-yl)oxy)acetyl)piperidin-4-yl)-1H-imidazole-4-carbonyl)piperidin-4-yl)-1H-pyrazol-4-yl)pyrazine-2-carboxylate] | 68.16% | 66.72% | 1.4 nM | 31.96% | 35.2% | –
5 | Nc1ncc(-c2cnn(C3CCN(C(=O)c4cn(C5CCN(C(=O)COc6ccc7c(c6)C(=O)N(C6CCC(=O)NC6=O)C7=O)CC5)cn4)CC3)c2)nc1C(=O)O[C@@H](C(=O)Nc1ccc(F)cc1)c1ccccc1 (stereo partly drawn) [TDH-355, (R)-2-((4-fluorophenyl)amino)-2-oxo-1-phenylethyl 3-amino-6-(1-(1-(1-(1-(2-((2-(2,6-dioxopiperidin-3-yl)-1,3-dioxoisoindolin-5-yl)oxy)acetyl)piperidin-4-yl)-1H-imidazole-4-carbonyl)piperidin-4-yl)-1H-pyrazol-4-yl)pyrazine-2-carboxylate] | 59.51% | 61.42% | 1.9 nM | 22.40% | 26.54% | –

Continued, in another order:

Row | Degradation assay (Degradation %) 1 μM (MLKL [1]) | Degradation assay (Degradation %) 10 μM (MLKL [1]) | Kd (MLKL [2]) | Structure (SMILES) | Necroptosis inhibition assay (Rescue %) 1 μM (FADD−/− Jurkat cells) | Necroptosis inhibition assay (Rescue %) 10 μM (FADD−/− Jurkat cells) | Necroptosis inhibition assay (Rescue %) 1.1 μM (FADD−/− Jurkat cells)
6 | 22.83% | – | 4.6 nM | Nc1ncc(-c2cnn(C3CCN(C(=O)c4cn(C5CCN(C(=O)CNc6cccc7c6C(=O)N(C6CCC(=O)NC6=O)C7=O)CC5)cn4)CC3)c2)nc1C(=O)O[C@@H](C(=O)Nc1ccc(F)cc1)c1ccccc1 (stereo partly drawn) [TDH-356, (R)-2-((4-fluorophenyl)amino)-2-oxo-1-phenylethyl 3-amino-6-(1-(1-(1-(1-((2-(2,6-dioxopiperidin-3-yl)-1,3-dioxoisoindolin-4-yl)glycyl)piperidin-4-yl)-1H-imidazole-4-carbonyl)piperidin-4-yl)-1H-pyrazol-4-yl)pyrazine-2-carboxylate] | 5.27% | 0.50% | –
7 | 84.79% | 76.36% | 0.55 nM | Nc1ncc(-c2cnn(C3CCN(CCCN4CCN(C(=O)CNc5ccc6c(c5)C(=O)N(C5CCC(=O)NC5=O)C6=O)CC4)CC3)c2)nc1C(=O)O[C@@H](C(=O)Nc1ccc(F)cc1)c1ccccc1 (stereo partly drawn) [TDH-357, (R)-2-((4-fluorophenyl)amino)-2-oxo-1-phenylethyl 3-amino-6-(1-(1-(3-(4-((2-(2,6-dioxopiperidin-3-yl)-1,3-dioxoisoindolin-5-yl)glycyl)piperazin-1-yl)propyl)piperidin-4-yl)-1H-pyrazol-4-yl)pyrazine-2-carboxylate] | – | – | 82.13 (1.1µM) %
8 | 91.6% | 86.73% | 0.5 nM | Nc1ncc(-c2cnn(C3CCN(CCCN4CCN(C(=O)COc5ccc6c(c5)C(=O)N(C5CCC(=O)NC5=O)C6=O)CC4)CC3)c2)nc1C(=O)O[C@@H](C(=O)Nc1ccc(F)cc1)c1ccccc1 (stereo partly drawn) [TDH-358, (R)-2-((4-fluorophenyl)amino)-2-oxo-1-phenylethyl 3-amino-6-(1-(1-(3-(4-(2-((2-(2,6-dioxopiperidin-3-yl)-1,3-dioxoisoindolin-5-yl)oxy)acetyl)piperazin-1-yl)propyl)piperidin-4-yl)-1H-pyrazol-4-yl)pyrazine-2-carboxylate] | – | 39.65% | 100.10 (1.1 µM) %
9 | 92.98% | 85.17% | 1.7 nM | Nc1ncc(-c2cnn([C@@H]3CCN(CC4CCN(C(=O)COc5ccc6c(c5)C(=O)N(C5CCC(=O)NC5=O)C6=O)CC4)C3)c2)nc1C(=O)O[C@@H](C(=O)Nc1ccc(F)cc1)c1ccccc1 (stereo partly drawn) [TDH-359, (R)-2-((4-fluorophenyl)amino)-2-oxo-1-phenylethyl 3-amino-6-(1-((3R)-1-((1-(2-((2-(2,6-dioxopiperidin-3-yl)-1,3-dioxoisoindolin-5-yl)oxy)acetyl)piperidin-4-yl)methyl)pyrrolidin-3-yl)-1H-pyrazol-4-yl)pyrazine-2-carboxylate] | – | 40.02% | 67.68 (1.1 µM) %
10 | 87.25% | 73.06% | 3.3 nM | Nc1ncc(-c2cnn(C3CN(CC4CCN(C(=O)CNc5ccc6c(c5)C(=O)N(C5CCC(=O)NC5=O)C6=O)CC4)C3)c2)nc1C(=O)O[C@@H](C(=O)Nc1ccc(F)cc1)c1ccccc1 (stereo partly drawn) [TDH-360, (R)-2-((4-fluorophenyl)amino)-2-oxo-1-phenylethyl 3-amino-6-(1-(1-((1-((2-(2,6-dioxopiperidin-3-yl)-1,3-dioxoisoindolin-5-yl)glycyl)piperidin-4-yl)methyl)azetidin-3-yl)-1H-pyrazol-4-yl)pyrazine-2-carboxylate] | – | 38.05% | 55.49 (1.1µM) %
11 | 51.1% | 48.59% | 1.7 nM | Nc1ncc(-c2cnn(C3CCN(C(=O)c4cn(C5CCN(C(=O)CNc6ccc7c(c6)C(=O)N(C6CCC(=O)NC6=O)C7=O)CC5)cn4)CC3)c2)nc1C(=O)O[C@@H](C(=O)Nc1ccc(F)cc1)c1ccccc1 (stereo partly drawn) [TDH-361, (R)-2-((4-fluorophenyl)amino)-2-oxo-1-phenylethyl 3-amino-6-(1-(1-(1-(1-((2-(2,6-dioxopiperidin-3-yl)-1,3-dioxoisoindolin-5-yl)glycyl)piperidin-4-yl)-1H-imidazole-4-carbonyl)piperidin-4-yl)-1H-pyrazol-4-yl)pyrazine-2-carboxylate] | 19.10% | 10.01% | –
